Test results from paper PMC11892739, “Site-specific molecular glues for the 14-3-3/Tau pS214 protein–protein interaction via reversible covalent imine tethering” (RSC Medicinal Chemistry, 2025).

Molecular target: T1, 14-3-3ζ/Tau pS2 peptide (Homo sapiens, UniProt P63104)
T1 construct: made in house; host or cells: NiCo21 (DE3) E. coli
T1 sequence (P63104 1-245): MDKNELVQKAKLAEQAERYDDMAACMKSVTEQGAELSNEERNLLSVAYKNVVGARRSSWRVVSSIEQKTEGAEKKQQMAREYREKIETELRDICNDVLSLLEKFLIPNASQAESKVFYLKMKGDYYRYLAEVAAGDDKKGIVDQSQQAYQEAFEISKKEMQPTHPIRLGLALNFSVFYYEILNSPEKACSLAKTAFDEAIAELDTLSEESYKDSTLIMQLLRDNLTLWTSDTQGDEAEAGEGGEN
Assay: Differential scanning fluorimetry of 14-3-3 with Tau pS2 peptide and compounds
Assay type: binding
Settings: compound 30-fold compared to 14-3-3ζ (75 μM), Tau pS2 peptide 25 μM, 14-3-3 2.5 μM; read-out: additional increase in melting temperature relative to the binary 14-3-3ζ/Tau pS2 peptide system
Description: Fig. 3 a Dose–response fluorescence anisotropy data of compound titrations to 10 nM FITC-labeled Tau pS2 peptide and 100 nM 14-3-3ζ. […] Mean of three individually performed experiments (see ESI ^† Fig. S8 for the protein titrations). e Differential scanning fluorimetry assay results. Identified melting temperatures (Tm) of 14-3-3γ alone (2.5 μM) and in the presence of Tau pS2 peptide (25 μM) and additionally with selected compounds (75 μM).
As an orthogonal method to profile the PPI stabilizing activity of selected compounds, differential scanning fluorimetry (DSF) assays were performed (Fig. 3e). […] Upon addition of compounds (1, 11, 13–14, and 20–22) to this PPI complex (30-fold compared to 14-3-3ζ), an additional increase in melting temperature between 0.9 °C and 2.1 °C was observed relative to the binary 14-3-3ζ/Tau pS2 peptide system. These observations are in agreement with the stabilization observed in the FA data and strongly testify to the molecular glue effect of our compound, by enhancing the stability of the PPI complex. […]
chromatography (HisTrap high performance cartridges, Cytiva). Typically two 5 mL columns were used for a 2 L culture in which the lysate was loaded on the column, washed with 10 CV wash buffer (50 mM Hepes, pH 8.0, 300 mM NaCl, 25 mM imidazole, 2 mM βME), and eluted with several fractions (2-4 CV) of elution buffer (50 mM Hepes, pH 8.0, 300 mM NaCl, 250 mM imidazole, 2 mM βME). Fractions containing the 14-3-3 protein were combined and dialyzed into 25 mM HEPES pH 8.0, 200 mM NaCl, 10 mM MgCl2, 2 mM βME, followed by dialysis into 25 mM HEPES, 100 mM NaCl, 10 mM MgCl2, 500 μM TCEP (adjusted to pH 8.0). Dialyzed protein was concentrated to ∼40 mg/mL, analyzed by Q -Tof LC/MS, and aliquots were flash -frozen for storage at −80 °C. For 14 -3-3σ∆c, 1 mg TEV per 100 mg purified protein was added to the dialysis to remove the purification tag. The cleaved sample was then again loaded on a 10 mL Ni-NTA column to separate the cleaved product from the expression tag and residual uncleaved protein. The flowthrough was loade d on a Superdex 75 pg 16/60 size exclusion column (GE Life Sciences) using 25 mM HEPES, 100 mM NaCl, 10 mM MgCl2, 500 μM TCEP (adjusted to pH = 8.0) as running buffer. Fractions containing the 14 -3-3 protein were pooled and concentrated to ∼60 mg/mL, analyzed Q -Tof LC/MS, and aliquots were flash -frozen for storage at −80°C. […]
The peptide screen was performed in a similar way as the 14-3-3ζ titration in the precence of compound.
14-3-3ζ was titrated in a 2-fold dilution series (starting at 400 µM 14-3-3ζ) to 100 nM of fluorescein-labeled peptides and 250 µM compound 18 (1% DMSO) in FA buffer (10 mM HEPES pH 7.4, 150 mM […]
Data shown is the average of a scientific triplicate.
Differential Scanning Fluorimetry (DSF)
DSF was performed using 40 µl samples containing 2.5 µM 14 -3-3ζ, 25 µM Tau peptide (Tau pS2, Tau pS214 or Tau pS324), […] (1% DMSO) and 5x ProteoOrange (Lumiprobe, 5000x stock in DMSO) in 10 mM HEPES, 150 mM NaCl, 50 µM TCEP (pH 7.4). The samples were heated from 35 °C to 79°C at a rate of 0.3 °C per 15 s in a C FX96 Touch Real-Time PCR Detection System (Bio -Rad). Fluorescence intensity was determined using excitation ( λem=525/20 nm) and emission ( λex=570/20 nm) filters.
Based on these melting curves, the negative derivative melting curve is obtained from which the melting temperature Tm was determined. All described melting temperatures are based on two or three independent experiments, from which the average and standard deviations were determined.
X-ray crystallography data collection and refinement
For x-ray crystallography, a C-terminally truncated 14-3-3σ protein (truncated after T231 to reduce flexibility) was used. This 14-3-3σ∆C was preincubated with Tau pS214 in complexation buffer (20 mM HEPES pH 7.5, 2 mM MgCl2 and 100 μM TCEP) in a 1:1.5 molar stoichiometry (protein:peptide) at a final protein concentration of 10.0 mg/mL. […]

Row | Compound | ΔTm [°C]
1 | O=Cc1ccc(-n2ccnc2-c2ccccc2)cc1Br [Compound 1] | 0.9 to 2.1
2 | O=Cc1ccc(-n2ccnc2-c2ccc(C(F)(F)F)cc2)cc1Br [Compound 20] | 0.9 to 2.1
3 | O=Cc1ccc(-n2ccnc2-c2ccc(Cl)cc2)cc1Br [Compound 14] | 0.9 to 2.1
4 | O=Cc1ccc(-n2ccnc2-c2ccc(OC(F)(F)F)cc2)cc1Br [Compound 21] | 0.9 to 2.1
5 | N#Cc1ccc(-c2nccn2-c2ccc(C=O)c(Br)c2)cc1 [Compound 22] | 0.9 to 2.1
6 | Cc1ccc(-c2nccn2-c2ccc(C=O)c(Br)c2)cc1 [Compound 11] | 0.9 to 2.1
7 | O=Cc1ccc(-n2ccnc2-c2ccc(F)cc2)cc1Br [Compound 13] | 0.9 to 2.1
